Source: US10106540B2, “HDAC6 inhibitors and their uses” (Universität Regensburg, priority 2014, dated 2018)
Entries after “also recorded” stand apart in the source; their conditions may differ.

Legend:
Assay type in all cases: cell-based, human
HCT-116 cells = experiment: Western blot analysis in HCT-116 colon cancer cells
Method: FIG. 5. Various cancer cells were treated for 24 h as shown and tested by Western blot analysis. […] Human colon cancer cell lines RKO (ATCC Accession No: CRL-2577) and HCT-116 (DSMZ Accession No: ACC-581). Western Blot Analysis a […] Protein lysate ([…]) was boiled in Laemmli buffer and separated on SDS-polyacrylamide gel electrophoresis for western blotting with specific antibodies. All lysates were assessed by Bradford assay for protein concentrations.

BV-173 cells = experiment: Western blot analysis in BV-173 cells
Method: BV-173 cells (BCR-ABL positive leukemic cells) were used as control cells left (Ctl) or with 1 μM MARB1, 2 μM MARB2 or 2 mM VPA treated for 24 h. These concentrations were chosen to achieve equipotent effects on cells which was in preliminary tests (data not shown). Shown are acetylated tubulin-α, α-tubulin, acetylated histone H3, WT1, survivin and β-actin. The total amount of α-tubulin and β-actin were used as loading control. Mr, relative molecular weight in kilodaltons. The degradation of WT1 in patients treated with VPA cells bases on a loss of WT1 mRNA and the increased degradation of WT1 protein by induction of the E2 ubiquitin conjugase UbcH8.
Flow cytometric analysis of the induction of (A) apoptotic DNA fragmentation and (B) Cell cycle analysis of BV 173 cells. The cells were kept as control cells (Ctl), treated with 1 μM or 2 μM MARB1 MARB2 and 0.2 or 0.5 μM imatinib for 48 h. The data was received by two independent experiments. The individual compounds show only slight effects in the used concentrations; whereas their combination can effectively kill leukemic cells. (C) Western blot analysis on data from the BCR-ABL, acetylated tubulin and α-sliced PARP1; the total amount of tubulin-α serves as a loading control. BV-173 cells were treated for 24 h with 1 μM, or 2 μM MARB1 or MARB2.
Human leukemia cell lines BV 173 and K562 with BCR-ABL mutation (Leibniz Institute DSMZ—German Collection of Microorganisms and Cell Cultures, DSMZ Accession Nos: ACC-20 and ACC-10).
(§1) The assay is carried out as described in Buchwald et al. 2010 and Buchwald et al. 2013. Briefly, cells were collected and lysed in NET-N buffer (150 mM NaCl, 1 mM EDTA, 50 mM Tris-HCl (pH 7.8), 0.5% Nonidet P-40 (NP-40), 1 mM phenylmethylsulfonyl fluoride, 0.5 mg/ml leupeptin and 0.5 mg/ml pepstatin) followed by mild sonification on ice. Protein lysate ([…]) was boiled in Laemmli buffer and separated on SDS-polyacrylamide gel electrophoresis for western blotting with specific antibodies. All lysates were assessed by Bradford assay for protein concentrations.

RKO cells = experiment: Western blot analysis in RKO colorectal cancer cells
Method: FIG. 5. Various cancer cells were treated for 24 h as shown and tested by Western blot analysis.
(D) Inhibition of HDAC6 protects it from degradation by the addition of a pro-apoptotic agent (staurosporine, ST).
The total amount of vinculin serves as a loading control; Proof of tubulin acetylation serves as proof of the treatment accuracy. The loss of the caspase-3 corresponds to the induction of apoptosis (programmed cell death).
Human colon cancer cell lines RKO (ATCC Accession No: CRL-2577) and HCT-116 (DSMZ Accession No: ACC-581).
as §1

[1] = test system: MV4-11, BV173 and HCT116 cells; experiment: Dose and time dependency of MARB1, Western blot method b; settings: 50 nM
Method: Cells were seeded on a 6 well plate and incubated as shown. The blots were quantified with Image Studio Lite Version 5.0. (A) 1 Mio cells per sample were seeded and after 2 h adaption time the cells were stimulated as shown, followed by incubation and harvesting of the cells. Tubulin and HSP90 were used as loading control. […] HSP90 and Tubulin were used as loading control. n=1 (C) 200,000 cells were seeded in a 6 well plate and incubated over night for adhesion. B-Actin was used as loading control. n=1
For the examination of the time dependency of MARB1 MV4-11, BV173 and HCT116 cells were tested by western blot. All cells were seeded on a 6 well plate. The blots were quantified with Image Studio Lite Version 5.0. (A) 1 Mio cells per sample were seeded and after 2 h adaption time the cells were stimulated as shown. Following the incubation, the cells were harvested as described earlier. Tubulin and HSP90 were used as loading control. […] HSP90 was used as loading control. […]
Western Blot analysis method b was used for the blots illustrated in FIGS. 6 to 9 and 11: Equal amounts of proteins were separated with a sodium dodecyl sulfate-polyacrylamide gel electrophoresis (SDS-PAGE) using an electrophoresis buffer by Laemmli with 1% SDS. […] Fluorescence coupled secondary antibodies (LI-COR) were used and the signal was measured on the Odyssey to detect the proteins.

[2] = BV-173, 1 μM MARB1, 2 μM MARB2, 24 h

For `CN1C(=O)C2CN(Cc3c2c2ccccc2n3Cc2ccc(C(=O)NO)cc2)C1=O` (centres unmarked) [MARB1, N-Hydroxy-4-((4-methyl-3,5-dioxo-3,4,5,6-tetrahydro-2,6-methano[1,3]diazocino[5,6-b]indol-11(1H)-yl)methyl)benzamide], the “tubulin acetylation and degradation” value (HCT-116 cells; 1 μM, 24 h (FIG. 5B)) was “triggers the hyperacetylation of tubulin without causing its degradation”, the “tubulin acetylation and degradation” value (HCT-116 cells; HCT-116 cells, 24 h) was “starts the hyperacetylation of tubulin in colon carcinoma cells (RKO and HCT-116 cells) without destroying it” and the “acetylation of tubulin-α” value (BV-173 cells; [2]) was “hyperacetylation of tubulin-α”. The expression of survivin (BV-173 cells; [2]) was “reduction of the expression of survivin”, the “acetylation of histone H3” value (BV-173 cells; BV-173, 1 μM MARB1, 2 μM MARB2 or 2 mM VPA, 24 h) was “Neither MARB1, nor MARB2 cause these alterations” and the “BCR-ABL expression on the protein level” value (BV-173 cells; BV-173, compound alone, 24 h) was “do not affect”. The “BCR-ABL stabilization/degradation in combination with imatinib” value (BV-173 cells; BV-173, with imatinib, 24 h) was “significantly inhibit the unwanted stabilization of BCR-ABL; also recorded: significant degradation of BCR-ABL”, the hyperacetylation of tubulin (RKO cells; 0.5 μM, 24 h) was “sufficient to induce hyperacetylation of tubulin” and the “HDAC6 loss in staurosporin (ST)-treated cells” value (RKO cells; with staurosporine) was “protects ST-treated RKO cells”. The acetylated tubulin ([1]; incubation for 30 min) was “increase of acetylated tubulin is detectable” and the “inhibition compared with Tubastatin A” value ([1]; short time course) was “faster and at later time points much more effective than Tubastatin A”.
